{"source": "patent US9265707B2", "about": "“Cosmetic composition comprising coumestrol or a bean extract containing coumestrol for skin care” (AMOREPACIFIC CORPORATION, priority 2010, dated 2016)", "key": {"[1]": {"system": "UVB-induced reactive oxygen species (ROS) in keratinocytes", "test": "Scavenging of UVB-induced reactive oxygen species (DCFH-DA fluorescence)", "assay_type": "cell-based", "conditions": "UVB 30 mJ/cm^2, relative to UV-treated control", "from_the_text": "2′,7′-Dichlorodihydrofluorescein diacetate (DCFH-DA; Molecular Probes, Inc., OR, USA) was used to evaluate the coumestrol's effect of scavenging UVB-induced ROS. DCFH-DA is an fat-soluble substance well known as a detector of ROS in cells. It is easily absorbed by cells and turned into water-soluble 2′,7′-dichlorodihydrofluorescein as a result of hydrolysis of the acetate group by esterase in the cells. Since it is turned to 2′,7′-dichlorofluorescein (DCF) which emits fluorescence after reaction with intracellular oxidizing agents, the quantity of intracellular ROS can be evaluated by measuring the intensity of fluorescence from cells treated with DCFH-DA.\nKeratinocytes (acquired from Dr. Fusenig at German Cancer Research Center) were seeded onto a 96-well black plate (Greiner BioOne Inc., NC, USA) for fluorescence measurement at a density of 1×10^4 cells per well and cultured for 24 hours. Then, the cells were treated with coumestrol diluted in fresh FBS-free medium to a final concentration of 0.01, 0.1 or 1 μM. After addition of the test substance, the cells were cultured for 24 hours. After removing the remaining medium by washing with HEPES-buffered control salt solution (HCSS), 20 μM DCFH-DA in 100 μL of HCSS was added. […] Then, after adding 100 μL of HCSS, the cells were irradiated with UVB of 30 mJ/cm^2 to induce production of ROS. […] The fluorescence intensity of DCF was measured with the Wallac VICTOR2 fluorometer (Wallac, Turku, Finland) at excitation wavelength of 485 nm and emission wavelength of 530 nm. ROS scavenging effect (%) relative to the control group was calculated from the measured fluorescence intensity."}, "MMP-1": {"system": "MMP-1", "test": "Inhibition of UV-induced MMP-1 expression (ELISA)", "assay_type": "cell-based", "conditions": "Fibroblast, light or radiation study, human fibroblasts, UVB 15 mJ/cm^2, 48 hours, untreated control 100, UV-treated control 132, read-out: MMP1 activity (%)", "experimental": "Human fibroblasts (CAS-C-004-5C, Invitrogen, CA, USA) were used to evaluate the coumestrol's effect of inhibiting UV-induced MMP-1 expression. The cells were seeded onto a 24-well plate at a density of 1×10^4 cells per well and cultured for about 24 hours in a medium containing 10% FBS until ˜about 80% confluency. After replacing the medium with an FBS-free medium, the cells were cultured for 24 hours. After washing once with PBS and adding 100 μL of PBS, the cells were irradiated with UVB of 15 mJ/cm^2. After removing the PBS, the cells were treated with coumestrol diluted to a final concentration of 0.01, 0.1 or 1 μM in a fresh FBS-free medium. Expression of MMP-1 was evaluated 48 hours after the treatment with the test substance. The expression of MMP-1 was evaluated using an enzyme-linked immunosorbent assay (ELISA) kit (RPN 2610; Biotrak Amersham Pharmacia Biotech, UK) after collecting a supernatant from the cell culture. The quantity of MMP-1 was determined from the total protein quantity."}, "type I pN collagen": {"system": "type I pN collagen", "test": "Type I pN collagen synthesis (PIP EIA kit)", "assay_type": "cell-based", "conditions": "human fibroblasts, 48 hours, untreated control 100", "experimental": "Human fibroblasts (CAS-C-004-5C, Invitrogen, CA, USA) were used to evaluate the coumestrol's effect on type I pN collagen synthesis. The cells were seeded onto a 24-well plate at a density of 1×10^4 cells per well and cultured for about 24 hours in a medium containing 10% FBS until ˜about 80% confluency. The cells were treated with coumestrol diluted to a final concentration of 0.01, 0.1 or 1 μM in a fresh FBS-free medium. The synthesized quantity of type I pN collagen was measured using a procollagen type I C-peptide (PIP) EIA kit (MK101; Takara Shuzo, Kyoto, Japan) by collecting a supernatant from the cell culture 48 hours after the treatment with the test substance. The quantity of type I pN collagen was determined from the total protein quantity."}, "[2]": {"system": "advanced glycation end product (AGE) in human fibroblasts", "test": "Inhibition of glycation of skin cells (AGE ELISA)", "assay_type": "cell-based", "conditions": "2.5 μM, UVB 50 mJ/cm^2, 24 hours, untreated control 0.156", "experimental": "(§1) Human fibroblasts (CAS-C-004-5C, Invitrogen, CA, USA) were used to evaluate the coumestrol's effect of inhibiting glycation of skin cells. The cells were seeded onto a 6-well plate at a density of 5×10^4 cells per well and cultured for about 24 hours in a medium containing 10% FBS until ˜about 80% confluency. After washing once with PBS and adding 100 μL of PBS, the cells were irradiated with UVB of 50 mJ/cm^2. After removing the PBS, the cells were treated with coumestrol diluted to a final concentration of 2.5 μM in a fresh FBS-free medium. Glycation of skin cells was evaluated using the Oxiselect™ advanced glycation end product (AGE) ELISA kit 24 hours after the treatment with the test substance."}, "[3]": {"system": "ATP production in human fibroblasts", "test": "ATP production in cells (ATP determination kit)", "assay_type": "cell-based", "conditions": "2.5 μM; human fibroblasts treated as in Test Example 4; untreated control 803", "experimental": "as §1\nFollowing treatment of human fibroblasts (CAS-C-004-5C, Invitrogen, CA, USA) as in Test Example 4, ATP production in the cells was evaluated using an ATP determination kit (Invitrogen, A22066)."}, "[4]": {"system": "Mouse melanocytes (MeI-Ab cells)", "test": "Inhibition of melanin production", "assay_type": "cell-based", "conditions": "Melanocyte, read-out: Melanin production inhibiting effect (%)"}, "[5]": {"system": "prostaglandin E2 production in human fibroblasts", "test": "Inhibition of prostaglandin E2 (PGE2) production", "assay_type": "cell-based", "conditions": "Fibroblast, A23187 and arachidonic acid stimulation, relative to coumestrol-untreated group, average of 5, read-out: Prostaglandin E2 production inhibiting effect (%)", "experimental": "The coumestrol's effect of inhibiting prostaglandin E2 production was tested as follows. Human fibroblasts (CAS-C-004-5C, Invitrogen, CA, USA) were cultured for 24 hours in a CO2 incubator. After replacing the medium with a fresh FBS-free medium and culturing for 2 hours, the cells were treated with coumestrol diluted to a final concentration of 0.01, 0.1 or 1 μM in a fresh FBS-free medium. The cells were then cultured for 2 hours at 37° C. in a 5% (v/v) CO2 incubator. Subsequently, after treating with 50 μM Calcium Ionophore A23187 and arachidonic acid for 5 minutes to stimulate prostaglandin E2, the cells were lysed and prostaglandin E2 was quantitated by measuring absorbance at 450 nm using an ELISA reader. The inhibiting effect (%) was calculated relative to the coumestrol-untreated group. Measurement was made 5 times and the result was averaged."}, "Cyclooxygenase-2 (COX-2)": {"system": "Cyclooxygenase-2 (COX-2)", "test": "Inhibition of COX-2 biosynthesis induced by LPS (western blotting)", "assay_type": "cell-based", "conditions": "human fibroblasts, 24 hours", "experimental": "Human fibroblasts (CAS-C-004-5C, Invitrogen, CA, USA) were used to evaluate the coumestrol's effect of inhibiting COX-2 biosynthesis. The cells were seeded onto a 6-well plate at a density of 5×10^4 cells per well and cultured for about 24 hours in a medium containing 10% FBS until ˜80% confluency. The cells were treated with coumestrol diluted to a final concentration of 0.01, 0.1 or 1 μM in a fresh FBS-free medium and then cultured for 24 hours at 37° C. in a 5% (v/v) CO2 incubator. The cells were harvested and the produced COX-2 was quantitated by western blotting."}, "atopic symptoms": {"system": "atopic symptoms", "test": "Improvement of atopic dermatitis (questionnaire, 12 weeks of ointment)", "assay_type": "in vivo, human", "conditions": "ointment containing 0.1% coumestrol, twice a day, people with atopic symptoms", "from_the_text": "They were asked to apply the ointment for 12 weeks, twice a day, at the sites of atopic symptoms. 12 weeks later, the improvement of the atopic symptoms was examined using a questionnaire. Improvement of typical symptoms of atopic dermatitis including “itchiness”, “dryness”, “keratinization”, “dandruff”, “erythema”, “swelling”, “skin fissure” and “ooze and eczema” was examined. The subjects were asked to score the improvement of the symptoms and the result was averaged to evaluate the improvement of atopic dermatitis."}, "[6]": {"system": "transepidermal water loss", "test": "Skin moisturization: transepidermal water loss", "assay_type": "in vivo, human", "conditions": "ointment containing 0.1% coumestrol, 24° C., RH 40%", "from_the_text": "They were asked to apply the ointment for 12 weeks, twice a day, at the sites of atopic symptoms. 12 weeks later, the improvement of the atopic symptoms was examined using a questionnaire. Improvement of typical symptoms of atopic dermatitis including “itchiness”, “dryness”, “keratinization”, “dandruff”, “erythema”, “swelling”, “skin fissure” and “ooze and eczema” was examined. The subjects were asked to score the improvement of the symptoms and the result was averaged to evaluate the improvement of atopic dermatitis. In order to evaluate the improvement of skin moisturizing ability, transepidermal water loss was measured for the subjects of Test Example 9 under constant-temperature, constant-humidity conditions (24° C., RH 40%) using a […]."}}}
{"molecule": "O=c1oc2cc(O)ccc2c2oc3cc(O)ccc3c12", "note": "[Coumestrol, 3,9-dihydroxy-6H-benzofuro(3,2-c)(1)benzopyran-6-one]", "values": [{"measurement": "ROS scavenging effect (%)", "setting": "[1]; 0.01 μM", "result": 18.7, "unit": "%"}, {"measurement": "ROS scavenging effect (%)", "setting": "[1]; 0.1 μM", "result": 25.6, "unit": "%"}, {"measurement": "ROS scavenging effect (%)", "setting": "[1]; 1 μM", "result": 55.1, "unit": "%"}, {"measurement": "activity at 0.01 µM", "setting": "MMP-1; 0.01 μM", "result": 115, "unit": "%"}, {"measurement": "activity at 0.1 µM", "setting": "MMP-1; 0.1 μM", "result": 102, "unit": "%"}, {"measurement": "activity at 1 µM", "setting": "MMP-1; 1 μM", "result": 98, "unit": "%"}, {"measurement": "Synthesis of type I pN collagen (%)", "setting": "type I pN collagen; 0.01 μM", "result": 115, "unit": "%"}, {"measurement": "Synthesis of type I pN collagen (%)", "setting": "type I pN collagen; 0.1 μM", "result": 126, "unit": "%"}, {"measurement": "Synthesis of type I pN collagen (%)", "setting": "type I pN collagen; 1 μM", "result": 129, "unit": "%"}, {"measurement": "Concentration of glycation end product", "setting": "[2]", "result": 0.077, "unit": "µg/mL"}, {"measurement": "Concentration of ATP", "setting": "[3]", "result": 917, "unit": "nM"}, {"measurement": "inhibition at 0.01 µM", "setting": "[4]", "result": 1.2, "unit": "%"}, {"measurement": "inhibition at 0.1 µM", "setting": "[4]", "result": 24.4, "unit": "%"}, {"measurement": "inhibition at 1 µM", "setting": "[4]", "result": 30.1, "unit": "%"}, {"measurement": "inhibition at 0.01 µM", "setting": "[5]; 0.01 μM", "result": 12.8, "unit": "%"}, {"measurement": "inhibition at 0.1 µM", "setting": "[5]; 0.1 μM", "result": 24.8, "unit": "%"}, {"measurement": "inhibition at 1 µM", "setting": "[5]; 1 μM", "result": 38.2, "unit": "%"}, {"measurement": "COX-2 expression level (% relative to control)", "setting": "Cyclooxygenase-2 (COX-2); 0.01 μM", "result": "89 % relative to control"}, {"measurement": "COX-2 expression level (% relative to control)", "setting": "Cyclooxygenase-2 (COX-2); 0.1 μM", "result": "81 % relative to control"}, {"measurement": "COX-2 expression level (% relative to control)", "setting": "Cyclooxygenase-2 (COX-2); 1 μM", "result": "64 % relative to control"}, {"measurement": "Number of subjects Aggravated", "setting": "atopic symptoms", "result": 0}, {"measurement": "Number of subjects Improved", "setting": "atopic symptoms", "result": 8}, {"measurement": "Number of subjects Not changed", "setting": "atopic symptoms", "result": 2}, {"measurement": "Number of subjects Remarkably improved", "setting": "atopic symptoms", "result": 5}, {"measurement": "Transepidermal water loss (%)", "setting": "[6]; 1 week later, control 34", "result": 30, "unit": "%"}, {"measurement": "Transepidermal water loss (%)", "setting": "[6]; 4 weeks later, control 39", "result": 32, "unit": "%"}, {"measurement": "Transepidermal water loss (%)", "setting": "[6]; 8 weeks later, control 41", "result": 26, "unit": "%"}, {"measurement": "Transepidermal water loss (%)", "setting": "[6]; 12 weeks later, control 36", "result": 15, "unit": "%"}]}
{"molecule": "Oc1ccc(O)cc1", "note": "[Hydroquinone, hydroquinone, reference compound]", "values": [{"measurement": "inhibition at 10 µM", "setting": "[4]; 10 μM (positive control), MeI-Ab cells", "result": 41.1, "unit": "%"}]}
